Source: ChEMBL document CHEMBL5131538 (J Med Chem, 2022)

Key:
Glucocorticoid receptor [1] = biological target: T1, Glucocorticoid receptor (Rattus norvegicus, UniProt P06536); experiment: Displacement of [3H]-dexamethasone from rat glucocorticoid receptor incubated overnight by liquid scintillation counting analysis
T1 sequence (P06536 whole entry): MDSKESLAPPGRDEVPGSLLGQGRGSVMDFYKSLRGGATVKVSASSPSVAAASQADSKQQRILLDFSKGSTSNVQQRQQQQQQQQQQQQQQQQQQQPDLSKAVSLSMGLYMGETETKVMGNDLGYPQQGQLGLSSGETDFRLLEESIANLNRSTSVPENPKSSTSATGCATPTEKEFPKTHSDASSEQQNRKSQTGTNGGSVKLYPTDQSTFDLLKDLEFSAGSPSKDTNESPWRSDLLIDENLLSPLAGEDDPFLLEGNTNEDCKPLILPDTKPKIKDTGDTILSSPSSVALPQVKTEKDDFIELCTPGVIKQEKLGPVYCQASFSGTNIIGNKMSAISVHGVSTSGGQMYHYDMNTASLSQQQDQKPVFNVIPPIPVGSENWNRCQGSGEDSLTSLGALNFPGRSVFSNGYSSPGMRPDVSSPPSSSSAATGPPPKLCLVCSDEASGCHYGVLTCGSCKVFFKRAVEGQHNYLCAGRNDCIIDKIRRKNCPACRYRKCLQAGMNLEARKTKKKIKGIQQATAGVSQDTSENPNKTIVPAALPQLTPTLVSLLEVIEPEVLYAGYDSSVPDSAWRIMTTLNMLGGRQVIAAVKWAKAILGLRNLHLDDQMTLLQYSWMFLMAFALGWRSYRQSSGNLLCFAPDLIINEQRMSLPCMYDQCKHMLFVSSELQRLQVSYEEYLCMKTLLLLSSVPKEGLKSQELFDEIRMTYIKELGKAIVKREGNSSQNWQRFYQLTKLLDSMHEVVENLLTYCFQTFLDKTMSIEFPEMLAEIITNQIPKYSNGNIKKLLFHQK

[2] = biological target: T2, Mineralocorticoid receptor (Homo sapiens, UniProt P08235); experiment: biochemical
T2 sequence (P08235 whole entry): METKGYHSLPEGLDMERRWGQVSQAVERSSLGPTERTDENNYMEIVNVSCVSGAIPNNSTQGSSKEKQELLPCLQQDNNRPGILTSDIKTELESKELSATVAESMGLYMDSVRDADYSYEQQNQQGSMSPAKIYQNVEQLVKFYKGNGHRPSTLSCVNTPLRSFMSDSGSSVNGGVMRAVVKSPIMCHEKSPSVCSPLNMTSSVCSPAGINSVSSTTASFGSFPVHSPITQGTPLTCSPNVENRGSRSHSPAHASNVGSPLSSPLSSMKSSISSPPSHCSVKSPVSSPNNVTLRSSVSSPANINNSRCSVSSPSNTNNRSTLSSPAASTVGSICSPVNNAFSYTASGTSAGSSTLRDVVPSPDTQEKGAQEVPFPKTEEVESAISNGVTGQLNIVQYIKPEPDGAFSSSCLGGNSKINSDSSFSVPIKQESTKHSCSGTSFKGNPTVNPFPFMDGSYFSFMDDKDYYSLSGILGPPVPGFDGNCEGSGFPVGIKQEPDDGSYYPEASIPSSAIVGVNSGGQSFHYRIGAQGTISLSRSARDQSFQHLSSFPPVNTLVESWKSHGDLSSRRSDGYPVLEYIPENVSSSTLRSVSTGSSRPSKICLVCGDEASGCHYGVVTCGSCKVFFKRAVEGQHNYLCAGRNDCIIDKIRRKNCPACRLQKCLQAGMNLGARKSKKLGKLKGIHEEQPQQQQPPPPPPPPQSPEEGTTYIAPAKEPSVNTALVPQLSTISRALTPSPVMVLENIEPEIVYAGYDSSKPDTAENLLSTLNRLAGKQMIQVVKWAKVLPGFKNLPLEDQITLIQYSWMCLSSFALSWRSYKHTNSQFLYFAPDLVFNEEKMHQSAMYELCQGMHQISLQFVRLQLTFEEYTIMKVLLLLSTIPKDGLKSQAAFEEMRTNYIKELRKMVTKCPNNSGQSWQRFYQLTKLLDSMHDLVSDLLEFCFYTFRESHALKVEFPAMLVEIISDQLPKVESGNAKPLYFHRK
Description: Displacement of [3H]-aldosterone from recombinant human mineralocorticoid receptor expressed in baculovirus infected insect cells incubated overnight by liquid scintillation counting analysis

[3] = biological target: T3, Mineralocorticoid receptor (Rattus norvegicus, UniProt P22199)
T3 sequence (P22199 whole entry): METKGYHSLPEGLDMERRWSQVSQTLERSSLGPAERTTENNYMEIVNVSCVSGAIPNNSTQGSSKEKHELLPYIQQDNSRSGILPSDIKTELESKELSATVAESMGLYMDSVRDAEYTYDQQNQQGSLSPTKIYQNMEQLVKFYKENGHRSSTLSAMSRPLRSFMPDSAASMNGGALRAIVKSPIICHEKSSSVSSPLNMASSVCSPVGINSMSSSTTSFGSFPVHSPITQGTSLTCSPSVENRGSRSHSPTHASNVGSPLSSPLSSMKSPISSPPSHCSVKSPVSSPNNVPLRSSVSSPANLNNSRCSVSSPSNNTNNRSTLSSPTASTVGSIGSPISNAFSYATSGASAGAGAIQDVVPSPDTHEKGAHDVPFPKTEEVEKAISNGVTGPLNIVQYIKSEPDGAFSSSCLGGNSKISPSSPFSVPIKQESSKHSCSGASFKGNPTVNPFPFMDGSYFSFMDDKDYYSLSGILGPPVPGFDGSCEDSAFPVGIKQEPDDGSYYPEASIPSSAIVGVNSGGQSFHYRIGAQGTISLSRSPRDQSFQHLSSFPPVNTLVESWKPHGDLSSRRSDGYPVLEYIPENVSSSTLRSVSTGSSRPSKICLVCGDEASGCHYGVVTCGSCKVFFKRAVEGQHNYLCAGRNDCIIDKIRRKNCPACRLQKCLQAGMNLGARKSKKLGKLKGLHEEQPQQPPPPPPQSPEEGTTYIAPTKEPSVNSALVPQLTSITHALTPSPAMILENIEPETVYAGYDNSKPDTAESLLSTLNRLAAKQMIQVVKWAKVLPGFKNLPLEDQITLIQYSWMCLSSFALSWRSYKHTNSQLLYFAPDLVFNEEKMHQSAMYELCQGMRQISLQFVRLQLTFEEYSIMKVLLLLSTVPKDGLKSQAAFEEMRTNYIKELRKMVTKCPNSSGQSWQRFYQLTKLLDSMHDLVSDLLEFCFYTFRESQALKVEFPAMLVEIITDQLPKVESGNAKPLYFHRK
Description: Displacement of [3H]-aldosterone from rat mineralocorticoid receptor incubated overnight by liquid scintillation counting analysis

CHO-K1 = experiment: Antagonist activity at human mineralocorticoid receptor S810L mutant expressed in CHO-K1 cells assessed as inhibition of aldosterone-induced transcriptional activity at 300 nM incubated for 24 hrs in presence of aldosterone at 0.5 nM by reporter gene assay relative to control; format: cell-based; design: scale not given: the % may be the effect or the level left; settings: filed as antagonist
[4] = biological target: T4, Mineralocorticoid receptor (Homo sapiens) (UniProt P08235); experiment: Antagonist activity at human wild-type mineralocorticoid receptor expressed in CHO-K1 cells assessed as inhibition of aldosterone-induced transcriptional activity incubated for 24 hrs in presence of 1 nM aldosterone by Steady-Glo reagent based reporter gene assay relative to control; format: cell-based; design: scale not given: the % may be the effect or the level left; settings: filed as antagonist
T4 sequence (whole entry): T2 sequence (P08235 whole entry)

Glucocorticoid receptor [5] = biological target: T5, Glucocorticoid receptor (Homo sapiens, UniProt P04150); experiment: biochemical
T5 sequence (P04150 whole entry): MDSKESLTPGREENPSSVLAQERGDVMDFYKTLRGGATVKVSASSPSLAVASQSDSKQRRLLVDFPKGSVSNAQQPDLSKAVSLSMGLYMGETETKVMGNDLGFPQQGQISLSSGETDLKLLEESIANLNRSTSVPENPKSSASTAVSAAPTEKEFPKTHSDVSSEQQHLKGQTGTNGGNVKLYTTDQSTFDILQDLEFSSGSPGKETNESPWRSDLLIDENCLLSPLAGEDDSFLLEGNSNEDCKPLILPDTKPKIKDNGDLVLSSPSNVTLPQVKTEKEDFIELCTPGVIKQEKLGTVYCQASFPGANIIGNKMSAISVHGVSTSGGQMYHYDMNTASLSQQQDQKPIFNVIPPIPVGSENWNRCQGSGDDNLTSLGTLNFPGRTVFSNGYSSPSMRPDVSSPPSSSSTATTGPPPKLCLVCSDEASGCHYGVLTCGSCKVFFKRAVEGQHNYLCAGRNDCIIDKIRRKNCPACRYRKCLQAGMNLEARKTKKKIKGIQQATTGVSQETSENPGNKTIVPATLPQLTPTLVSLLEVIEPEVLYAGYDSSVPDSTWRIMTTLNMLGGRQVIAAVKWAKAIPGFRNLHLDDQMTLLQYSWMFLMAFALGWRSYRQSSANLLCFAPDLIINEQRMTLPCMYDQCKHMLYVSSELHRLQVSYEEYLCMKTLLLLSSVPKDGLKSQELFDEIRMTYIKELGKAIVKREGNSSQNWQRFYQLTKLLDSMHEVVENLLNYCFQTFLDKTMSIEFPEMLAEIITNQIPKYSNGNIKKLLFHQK
Description: Displacement of [3H]-dexamethasone from recombinant full length human glucocorticoid receptor expressed in baculovirus infected insect cells incubated overnight by liquid scintillation counting analysis

Compound | Ki (Glucocorticoid receptor [1]) | Ki [2] | Ki [3] | Activity (CHO-K1) | Activity [4] | IC50 (Glucocorticoid receptor [5])
CS(=O)(=O)Nc1ccc2c(c1)OC(c1ccccc1)C(=O)N2c1ccc(F)cc1 (centres undefined) | 55.2 µM | 0.342 µM | 0.25 µM | – | – | –
CCN(c1ccccc1)c1ccc(NS(C)(=O)=O)cc1 | 45 µM | 0.607 µM | 1.56 µM | – | – | –
CC(C)(c1ccccc1)c1ccc(S(N)(=O)=O)cc1 | > 100 µM | – | > 100 µM | – | – | –
CC1Oc2cc(NS(C)(=O)=O)ccc2N(c2ccc(F)cc2)C1=O (centres undefined) | 136 µM | 0.16 µM | 0.201 µM | – | – | –
CN(c1ccccc1)c1ccc(NS(C)(=O)=O)cc1 | 47.2 µM | 0.735 µM | 0.853 µM | – | – | –
CS(=O)(=O)Nc1ccc(N(Cc2ccccc2)c2ccccc2)cc1 | 29.1 µM | 0.147 µM | 0.357 µM | – | – | –
CC1(C)CN(c2ccc(F)cc2)c2ccc(NS(C)(=O)=O)cc2O1 | 43.2 µM | – | – | – | – | –
CC(=O)Nc1ccc(C(C)(C)c2ccccc2)cc1 | > 100 µM | – | > 100 µM | – | – | –
CNS(=O)(=O)c1ccc(C(C)(C)c2ccccc2)cc1 | > 100 µM | 1.37 µM | 4.31 µM | – | – | –
CS(=O)(=O)Nc1ccc2c(c1)OC1(CC1)C(=O)N2c1ccc(F)cc1 | > 100 µM | 0.808 µM | 0.549 µM | – | – | –
CS(=O)(=O)Nc1ccc(N(C(=O)c2ccccc2)c2ccc(F)cc2)cc1 | 41.5 µM | – | – | – | – | –
CS(=O)(=O)Nc1ccc(Nc2ccccc2)cc1 | > 100 µM | – | > 100 µM | – | – | –
CCS(=O)(=O)Nc1ccc(C(C)(C)c2ccccc2)cc1 | 37.9 µM | 1.92 µM | 3.77 µM | – | – | –
CS(=O)(=O)Nc1ccc2c(c1)OC1(CCC1)C(=O)N2c1ccc(F)cc1 | > 100 µM | 0.152 µM | 0.626 µM | – | – | –
CN(C)S(=O)(=O)Nc1ccc(C(C)(C)c2ccccc2)cc1 | 29 µM | – | 6.88 µM | – | – | –
CC(C)(c1ccccc1)c1cccc(NS(C)(=O)=O)c1 | 19.6 µM | – | 12 µM | – | – | –
CC(C)(c1ccccc1)c1ccc(NS(C)(=O)=O)cc1 | 40 µM | 0.74 µM | 1.96 µM | – | – | –
CS(=O)(=O)Nc1ccc2c(c1)OCC(=O)N2c1ccc(F)cc1 | > 100 µM | – | 1.75 µM | – | – | –
CC(=O)c1ccc(N(Cc2ccccc2)c2ccc(NS(C)(=O)=O)cc2)cc1 | 25.4 µM | – | 5.67 µM | – | – | –
CS(=O)(=O)Nc1ccc(N(C(=O)c2ccccc2)c2ccccc2)cc1 | 22.2 µM | 1.27 µM | 1.24 µM | – | – | –
CC(C)(c1ccccc1)c1ccc(NS(=O)(=O)C(F)(F)F)cc1 | > 100 µM | – | > 100 µM | – | – | –
CC(=O)S[C@@H]1CC2=CC(=O)CC[C@]2(C)[C@H]2CC[C@@]3(C)[C@@H](CC[C@@]34CCC(=O)O4)[C@H]12 [SPIRONOLACTONE] | – | – | – | 58.5% | 98.3% | 6.05 µM
